Patent US20040116420A1 (priority 2001, published 2004)

Columns and labels:
Vero cells = experiment: Cytotoxicity, Vero cells, Alamar Blue; format: cell-based; settings: 25 μM, 20 hours
Procedure, shortened: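 Living-cell ratio versus untreated control was read by Alamar Blue absorbance after about 6 h of dye incubation. Before that, Vero cells had received 25 μM test compound in 2% FBS-DMEM for 20 hours at 37 °C under 5% CO2.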

HSV-1 protease = molecular target: T1, HSV-1 protease (Human herpesvirus 1, UniProt P10210); experiment: Enzymatic assay for HSV-1 protease (assembly) inhibitor, fluorescence polarization; format: biochemical; settings: read-out: HSV-1 Enzyme inhibition IC50
T1 construct: 6xHis (N); made in house; host or cells: baculovirus expression system
T1 sequence (P10210 1-247): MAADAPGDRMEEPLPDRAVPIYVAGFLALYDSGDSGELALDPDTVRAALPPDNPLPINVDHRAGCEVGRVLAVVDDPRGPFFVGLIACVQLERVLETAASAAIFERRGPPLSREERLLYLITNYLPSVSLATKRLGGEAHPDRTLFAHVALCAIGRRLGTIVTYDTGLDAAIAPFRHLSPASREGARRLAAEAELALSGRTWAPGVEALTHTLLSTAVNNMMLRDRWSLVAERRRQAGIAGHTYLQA
Procedure, shortened: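 Fluorescence polarization read-out: after avidin stop, cleavage of a biotinylated DTAF-labelled release-site peptide by recombinant N-His6 HSV-1 protease was compared with no-inhibitor wells. Enzyme and compound were preincubated 30 min, then substrate reacted 60 min, all at room temperature, pH 7.4 citrate buffer with TCEP.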

HSV-1 = experiment: Antiviral activity, HSV-1 in Vero cells, plaque method; format: cell-based; settings: Human alphaherpesvirus 1, 20 hours, 90% inhibition of plaque formation
Procedure, shortened: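 This is a virus-yield read-out. The culture medium was frozen at −80° C and thawed, and the plaques it formed were counted. It came from Vero monolayers infected with 50,000 pfu HSV-1 and then exposed to the compound for 20 h at 37° C. EC90 is the concentration inhibiting 90% of plaque formation relative to the untreated infected control.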

Cc1c(NC(=O)c2ccccc2)ccc2nc(NC(C)(C)C(=O)N(C)CCc3ccccn3)oc(=O)c12 [Compound No.138, N-(5-Methyl-2-{1-methyl-1-[methyl-(2-pyridin-2-yl-ethyl)-carbamoyl]-ethylamino}-4-oxo-4H-benzo[d][1,3]oxazin-6-yl)-benzamide]
Cell viability (% of control) (Vero cells): 84.4% | IC50 (HSV-1 protease): 2.8 µM | EC90 (HSV-1): > 12.5 µM

Cc1c(NC(=O)c2ccco2)ccc2nc(NC(C)(C)C(=O)N(C)CCc3ccccn3)oc(=O)c12 [Compound No.139, Furan-2-carboxylic acid (5-methyl-2-{1-methyl-1-[methyl-(2-pyridin-2-yl-ethyl)-carbamoyl]-ethylamino}-4-oxo-4H-benzo[d][1,3]oxazin-6-yl)-amide]
Cell viability (% of control) (Vero cells): 90.7% | IC50 (HSV-1 protease): 1.4 µM | EC90 (HSV-1): > 12.5 µM

Cc1c(NC(=O)c2ccccc2[N+](=O)[O-])ccc2nc(NC(C)(C)C(=O)N(C)CCc3ccccn3)oc(=O)c12 [Compound No.140, N-(5-Methyl-2-{1-methyl-1-[methyl-(2-pyridin-2-yl-ethyl)-carbamoyl]-ethylamino}-4-oxo-4H-benzo[d][1,3]oxazin-6-yl)-2-nitro-benzamide]
Cell viability (% of control) (Vero cells): 96.8% | IC50 (HSV-1 protease): 4.2 µM | EC90 (HSV-1): > 12.5 µM

Cc1c(NC(=O)c2cccc([N+](=O)[O-])c2)ccc2nc(NC(C)(C)C(=O)N(C)CCc3ccccn3)oc(=O)c12 [Compound No.141, N-(5-Methyl-2-{1-methyl-1-[methyl-(2-pyridin-2-yl-ethyl)-carbamoyl]-ethylamino}-4-oxo-4H-benzo[d][1,3]oxazin-6-yl)-3-nitro-benzamide]
Cell viability (% of control) (Vero cells): 80.4% | IC50 (HSV-1 protease): 8 µM | EC90 (HSV-1): > 12.5 µM

Cc1c(NC(=O)c2ccc([N+](=O)[O-])cc2)ccc2nc(NC(C)(C)C(=O)N(C)CCc3ccccn3)oc(=O)c12 [Compound No.142, N-(5-Methyl-2-{1-methyl-1-[methyl-(2-pyridin-2-yl-ethyl)-carbamoyl]-ethylamino}-4-oxo-4H-benzo[d][1,3]oxazin-6-yl)-4-nitro-benzamide]
Cell viability (% of control) (Vero cells): 61.0% | IC50 (HSV-1 protease): 1.3 µM | EC90 (HSV-1): 10.4 µM

Cc1c(NC(=O)c2cccc(C#N)c2)ccc2nc(NC(C)(C)C(=O)N(C)CCc3ccccn3)oc(=O)c12 [Compound No.143, 3-Cyano-N-(5-methyl-2-{1-methyl-1-[methyl-(2-pyridin-2-yl-ethyl)-carbamoyl]-ethylamino}-4-oxo-4H-benzo[d][1,3]oxazin-6-yl)-benzamide]
Cell viability (% of control) (Vero cells): 86.9% | IC50 (HSV-1 protease): 3.7 µM | EC90 (HSV-1): > 12.5 µM

Cc1c(NC(=O)c2ccccc2C(F)(F)F)ccc2nc(NC(C)(C)C(=O)N(C)CCc3ccccn3)oc(=O)c12 [Compound No.144, N-(5-Methyl-2-{1-methyl-1-[methyl-(2-pyridin-2-yl-ethyl)-carbamoyl]-ethylamino}-4-oxo-4H-benzo[d][1,3]oxazin-6-yl)-2-trifluoromethyl-benzamide]
Cell viability (% of control) (Vero cells): 76.1% | IC50 (HSV-1 protease): 2.3 µM | EC90 (HSV-1): > 12.5 µM

Cc1c(NC(=O)c2cccc(C(F)(F)F)c2)ccc2nc(NC(C)(C)C(=O)N(C)CCc3ccccn3)oc(=O)c12 [Compound No.145, N-(5-Methyl-2-{1-methyl-1-[methyl-(2-pyridin-2-yl-ethyl)-carbamoyl]-ethylamino}-4-oxo-4H-benzo[d][1,3]oxazin-6-yl)-3-trifluoromethyl-benzamide]
Cell viability (% of control) (Vero cells): 19.7% | IC50 (HSV-1 protease): 1.3 µM | EC90 (HSV-1): 6 µM

Cc1c(NC(=O)c2ccc(C(F)(F)F)cc2)ccc2nc(NC(C)(C)C(=O)N(C)CCc3ccccn3)oc(=O)c12 [Compound No.146, N-(5-Methyl-2-{1-methyl-1-[methyl-(2-pyridin-2-yl-ethyl)-carbamoyl]-ethylamino}-4-oxo-4H-benzo[d][1,3]oxazin-6-yl)-4-trifluoromethyl-benzamide]
Cell viability (% of control) (Vero cells): 18.0% | IC50 (HSV-1 protease): 1.2 µM | EC90 (HSV-1): 5.6 µM
